Test results published in publication PMC7174022 (Dalton transactions (Cambridge, England : 2003), 2020).

Assays:
[1] = system: the cell lines investigated
[2] = system: HFF-1 cells (normal human foreskin fibroblast); type: cell-based; conditions: read-out: IC50 HFF-1
[3] = system: Hep G2 cells (human hepatocellular carcinoma); type: cell-based; conditions: read-out: IC50 Hep G2
DU-145 cells = type: cell-based, human
[4] = system: MIA PaCa 2 cells (human pancreatic carcinoma); type: cell-based; conditions: read-out: IC50 MIA PaCa 2
[5] = system: MCF-7 cells (breast adenocarcinoma); type: cell-based, human; conditions: read-out: IC50 MCF-7
[6] = system: DU-145 cells (metastatic prostate carcinoma); type: cell-based, human; conditions: read-out: IC50 DU-145
[7] = system: PANC-1 cells (human pancreatic carcinoma); type: cell-based; conditions: read-out: IC50 PANC-1
[8] = system: microtubule network in MCF-7 cells; type: cell-based, human

OCCN(CCO)Cc1ccccn1 [Complex L1, bis(2-hydroxyethyl)pyridylmethylamine]
cytotoxicity of the ligands (in words) [1]: did not exhibit any cytotoxicity

O=C1[O][Pt]2([NH][C@@H]3CCCC[C@H]3[NH]2)[O]C1=O [Oxaliplatin]
IC50 [2]: 7 ± 0.6 µM
IC50 [3]: 9.8 ± 0.3 µM
increase in cell killing efficiency in presence of verapamil (DU-145 cells): 8 times
IC50 [4]: 5.7 ± 0.2 µM
IC50 [5]: 600 ± 100 nM
IC50 [6]: 4.5 ± 0.3 µM
IC50 [7]: 3.1 ± 0.2 µM

COc1cc2c(c(OC)c1OC)-c1ccc(OC)c(=O)cc1[C@@H](NC(C)=O)CC2 [colchicine, Colchicine]
organization of microtubule network (positive control) [8]: disruption of microtubule network
